This is an account of results in patent US6344190B1, “Method and compositions for treatment of fungal nail disease” (Board of Trustees of Michigan State University, priority 1999, dated 2002).

One data set relates to Aspergillus flavus. Put plainly: Zone of inhibition assay (agar plates). Type of data set: cell-based. Details: key to Zone of Inhibition: X denotes no observable zone of inhibition. The conditions noted are these: after 7 days, 250 μg/mL.
In the next data set the test system is Fusarium oxysporum. The experiment in a line: Zone of inhibition assay (agar plates). In kind it is cell-based. Details: key to Zone of Inhibition: X denotes no observable zone of inhibition. The conditions noted are these: after 7 days, 250 μg/mL.
The next data set deals with A. terreus. Put plainly: Zone of inhibition assay (agar plates). Type of data set: cell-based, Aspergillus terreus. On the set-up: key to Zone of Inhibition: X denotes no observable zone of inhibition. The conditions noted are these: after 7 days, 250 μg/mL.
The subject of a further data set is S. hyalinum. Put plainly: Zone of inhibition assay (agar plates). In kind it is cell-based, Scytalidium hyalinum. Details: key to Zone of Inhibition: X denotes no observable zone of inhibition. The conditions noted are these: after 7 days, 250 μg/mL.
The subject of another data set is Scytalidium dimidiatum. Put plainly: Zone of inhibition assay (agar plates). In kind it is cell-based. Details: key: X denotes no observable zone of inhibition. Particulars: after 7 days, 250 μg/mL.
In a further data set the test system is C. kruseii. Put plainly: Zone of inhibition assay (agar plates). Details: key to Zone of Inhibition: X denotes no observable zone of inhibition. The conditions noted are these: after 7 days, 250 μg/mL; for zone of inhibition at 250 µg/mL: 168 h. Type of data set: cell-based.
A further data set has as its system A. strictum. Put plainly: Zone of inhibition assay (agar plates). Type of data set: cell-based, Acremonium strictum. Details: key to Zone of Inhibition: X denotes no observable zone of inhibition. The conditions noted are these: after 7 days, 250 μg/mL; for zone of inhibition at 250 µg/mL: Sarocladium strictum, 168 h.
Another data set concerns Microsporum canis. The experiment in a line: Zone of inhibition assay (agar plates). In kind it is cell-based. The conditions noted are these: 168 h, after 7 days, 250 μg/mL.
For another data set, the system named is C. parapsilosis. Put plainly: Zone of inhibition assay (agar plates). In kind it is cell-based. The conditions noted are these: Lodderomyces parapsilosis, 168 h; after 7 days, 250 μg/mL.
Data set [1] concerns Trichophyton mentagrophytes. The experiment in a line: Zone of inhibition assay (agar plates). Details: key to Zone of Inhibition: X denotes no observable zone of inhibition. Type of data set: cell-based. Particulars: after 7 days, 250 μg/mL.
For another data set, the system named is Candida albicans. The experiment in a line: Zone of inhibition assay (agar plates). Particulars: 168 h, after 7 days, 250 μg/mL. Type of data set: cell-based.
Another data set has as its system F. proliferatum. The experiment in a line: Zone of inhibition assay (agar plates). Type of data set: cell-based. On the set-up: key to Zone of Inhibition: X denotes no observable zone of inhibition. The conditions noted are these: after 7 days, 250 μg/mL.
The next data set concerns T. rubrum. The experiment in a line: Zone of inhibition assay (agar plates). Particulars: Trichophyton rubrum, 168 h; after 7 days, 250 μg/mL. Type of data set: cell-based.
In the next data set the test system is Epidermophyton floccosum. Put plainly: Zone of inhibition assay (agar plates). In kind it is cell-based. The conditions noted are these: after 7 days, 250 μg/mL. Details: key to Zone of Inhibition: X denotes no observable zone of inhibition.
Another data set has as its system Acremonium chrysogenum. The experiment in a line: Zone of inhibition assay (agar plates). The conditions noted are these: Hapsidospora chrysogena, 168 h; after 7 days, 250 μg/mL. Type of data set: cell-based.
The test system of data set [2] is Scopulariopsis brevicaulis. Put plainly: Zone of inhibition assay (agar plates). Type of data set: cell-based. On the set-up: key to Zone of Inhibition: X denotes no observable zone of inhibition. Particulars: after 7 days, 250 μg/mL.
In a further data set the test system is toenail onychomycosis. The conditions noted are these: oral treatment, toenail onychomycosis (Einarson et al. 1994); cited from earlier work.
For data set [3] the following is noted: oral treatment, literature reports; cited from earlier work.

Entries after “also recorded” stand apart in the source; their conditions may differ.

Usually zone of inhibition stands for the extent of the growth-free halo in a diffusion test.

Consider `CC12CCC(CC1=O)C2(C)C` (stereo not drawn) [Ca, Camphor], for which the “Zone of Inhibition” value in the data set with Aspergillus flavus, in the data set on Fusarium oxysporum, in the data set with A. terreus, in the data set on S. hyalinum, in the data set on Scytalidium dimidiatum and with C. kruseii was “X” throughout. In addition, the “Zone of Inhibition” value (in the data set with A. strictum; in [1]; in the data set with F. proliferatum; in the data set with Epidermophyton floccosum; in data set [2]) was “X” throughout. For the same molecule, the zone of inhibition at 250 µg/mL in the data set with Microsporum canis was found to be 2 mm; with C. parapsilosis, 7 mm; in the data set on Candida albicans, 7 mm; in the data set with T. rubrum it was 8 mm; with Acremonium chrysogenum it was 10 mm.
For the molecule `COC1=CC(=O)C[C@@H](C)[C@]12Oc1c(Cl)c(OC)cc(OC)c1C2=O` [GRI, griseofulvin], the “success rates of the treatments” value in the data set with toenail onychomycosis is recorded as 17.5%. Further, the side effects result in data set [3] is reported as “elevated liver enzymes”.
Take `CC(=O)N1CCN(c2ccc(OCC3COC(Cn4ccnc4)(c4ccc(Cl)cc4Cl)O3)cc2)CC1` (stereo not drawn) [KET, ketoconazole]: in the data set with toenail onychomycosis, the “success rates of the treatments” value was 40.8%. Further, in data set [3], the side effects entry was “elevated liver enzymes; also recorded: anti-androgenic dysfunction in males and adrenal dysfunction”.
With `CC1CCC(C(C)C)C(O)C1` (stereo not drawn) [M, Menthol], the “Zone of Inhibition” value (in the data set on Aspergillus flavus; in the data set on Fusarium oxysporum; in the data set with A. terreus; in the data set on S. hyalinum; in the data set with Scytalidium dimidiatum; in [1]) was “X” each time. Besides, the “Zone of Inhibition” value (with F. proliferatum; in data set [2]) was “X” each time. In addition, the zone of inhibition at 250 µg/mL in the data set with C. kruseii worked out at 12 mm; in the data set on A. strictum, 9 mm; with Microsporum canis it was 3 mm; in the data set on C. parapsilosis, 11 mm; in the data set on Candida albicans, 14 mm; in the data set with T. rubrum, 15 mm. Moreover, the zone of inhibition at 250 µg/mL in the data set with Epidermophyton floccosum (Epidermophyton floccosum, 168 h) was 2 mm; in the data set on Acremonium chrysogenum, 15 mm.
With `Cc1ccc(C(C)C)c(O)c1` [T, Thymol], the zone of inhibition at 250 µg/mL in the data set on Aspergillus flavus (Aspergillus flavus, 168 h) is 6 mm; in the data set on Fusarium oxysporum (Fusarium oxysporum, 168 h) it was 2 mm; in the data set on A. terreus (Aspergillus terreus, 168 h) it was 3 mm; with S. hyalinum (Neoscytalidium hyalinum, 168 h) it was 5 mm; in the data set on C. kruseii, 16 mm; in the data set with A. strictum, 12 mm. For the same molecule, the zone of inhibition at 250 µg/mL in the data set with Microsporum canis worked out at 20 mm; with C. parapsilosis, 20 mm; in data set [1] (Trichophyton mentagrophytes, 168 h), 10 mm; in the data set on Candida albicans it was 17 mm; with F. proliferatum (Fusarium proliferatum, 168 h), 3 mm; with T. rubrum it was 16 mm. Further, the zone of inhibition at 250 µg/mL turned out to be 20 mm with Acremonium chrysogenum and 14 mm in [2] (Scopulariopsis brevicaulis, 168 h). Further, the “Zone of Inhibition” value in the data set on Scytalidium dimidiatum and with Epidermophyton floccosum was “X” throughout.
For the molecule `CN(C/C=C/C#CC(C)(C)C)Cc1cccc2ccccc12` [TER, terbinafine], in the data set with toenail onychomycosis, the “success rates of the treatments” value is reported as 78.3%.
For the molecule `CCC(C)n1ncn(-c2ccc(N3CCN(c4ccc(OCC5COC(Cn6cncn6)(c6ccc(Cl)cc6Cl)O5)cc4)CC3)cc2)c1=O` (stereo not drawn) [itraconazole], the side effects entry in data set [3] was “elevations of serum transaminases, alkaline phosphatase and bilirubin”.
